# Assay results taken from US20060228706A1, “Methods of diagnosing and treating diabetes and insulin resistance” (Metabolex, Inc., priority 2002, published 2006).
# Values joined by “and” are separate entries in the source; they are usually repeats but may differ in a detail not shown here. Equal entries are not always repeated.
# Experiments:
# 3T3-L1 adipocytes = assay: Glucose transport analysis in 3T3-L1 adipocytes (2-deoxyglucose uptake), cells not expressing hP2RY1; assay type: cell-based, murine; conditions: basal glucose transport (no insulin), 2-MeSADP 1 μM for 6 hours, mean of 5 experiments
# Protocol: (§1) In some instances another analysis called “glucose transport” was used. This involves over-expressing the gene in either differentiated 3T3-L1 adipocytes or differentiated L6 myotubes and then monitoring the ability of insulin to stimulate glucose transport into these two cell types. A recombinant adenovirus encoding the human gene tagged with a FLAG epitope tag was prepared essentially as described in Zhou et al., Proc. Nat. Acad. Sci. USA. 95:2509-2514 (1998). 3T3-L1 adipocytes or L6 myotubes were infected with recombinant adenovirus expressing the human gene. A virus expressing an irrelevant protein was used as the control. Twenty four hours post infection the cells are stimulated with increasing concentrations of insulin and glucose transport into the cells determined by the counting the accumulation of a radiolabelled glucose analog (2-deoxyglucose) essentially as described in Kotani et al., Mol. Cell. Biol. 18:6971-6982 (1998), Fujishiro et al., J. Biol. Chem. 276:19800-19806 (2001), Ross et al., Biochem. Biophys. Res. Commun. 302:354-358 (2003)
# hP2RY1 [1] = target: T1, hP2RY1 (Homo sapiens, UniProt P47900); assay: Glucose transport analysis in 3T3-L1 adipocytes over-expressing hP2RY1 (adenovirus); assay type: cell-based
# T1 construct: expressed in transfected cells; host or cells: differentiated murine 3T3-L1 adipocytes (A2) or differentiated L6 myotubes (A4), infected with recombinant adenovirus
# T1 sequence (P47900 whole entry): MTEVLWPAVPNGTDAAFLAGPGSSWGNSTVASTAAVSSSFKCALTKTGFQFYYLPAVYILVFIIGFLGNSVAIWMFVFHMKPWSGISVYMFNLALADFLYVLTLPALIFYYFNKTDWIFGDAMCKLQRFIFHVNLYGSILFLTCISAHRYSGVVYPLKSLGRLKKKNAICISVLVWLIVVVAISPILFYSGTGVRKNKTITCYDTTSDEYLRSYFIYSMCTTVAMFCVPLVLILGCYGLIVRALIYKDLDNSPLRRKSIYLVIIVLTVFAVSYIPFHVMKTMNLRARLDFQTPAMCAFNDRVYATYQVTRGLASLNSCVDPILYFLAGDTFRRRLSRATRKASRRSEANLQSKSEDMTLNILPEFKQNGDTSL
# Protocol: as §1
# L6 myotubes = assay: Glucose transport analysis in L6 myotubes (2-deoxyglucose uptake), cells not expressing hP2RY1; assay type: cell-based; conditions: basal glucose transport (no insulin), 2-MeSADP 1 μM for 6 hours
# Protocol: as §1
# hP2RY1 [2] = target: T1, hP2RY1; assay: Glucose transport analysis in L6 myotubes over-expressing hP2RY1 (adenovirus); assay type: cell-based
# Protocol: as §1
structure (smiles),measurement,setting,value
CSc1nc(N)c2ncn([C@@H]3O[C@H](COP(=O)(O)OP(=O)(O)O)[C@@H](O)[C@H]3O)c2n1 [2-MeSADP],"Fold Change 1 (Basal plus 2-MeSADP)/(Basal no 2-MeSADP), Mean +/− SEM (n = 5)",3T3-L1 adipocytes,1.07 +/− 0.13
same,"basal glucose transport, result in words",hP2RY1 [1]; 3T3-L1 adipocytes with or without hP2RY1,can be stimulated by a P2RY1 agonist but only when the hP2RY1 is expressed in the cells
same,"Fold Change 2 (Basal plus P2RY1 plus 2-MeSADP)/(Basal no P2RY1 no 2-MeSADP), Mean +/− SEM (n = 5)","hP2RY1 [1]; basal glucose transport (no insulin), hP2RY1-expressing 3T3-L1 adipocytes, 2-MeSADP 1 μM for 6 hours, mean of 5 experiments",2.11 +/− 0.34
same,"Fold Change 1 (Basal plus 2-MeSADP)/(Basal no 2-MeSADP), Mean (n = 2)",L6 myotubes; mean of 2 experiments,0.97
same,Fold Change 1 (Basal plus 2-MeSADP)/(Basal no 2-MeSADP),L6 myotubes; single experiments,0.99 and 0.95
same,"basal glucose transport, result in words",hP2RY1 [2]; L6 myotubes with or without hP2RY1,can be stimulated by a P2RY1 agonist but only when the hP2RY1 is expressed in the cells
same,"Fold Change 2 (Basal plus P2RY1 plus 2-MeSADP)/(Basal no P2RY1 no 2-MeSADP), Mean (n = 2)","hP2RY1 [2]; basal glucose transport (no insulin), hP2RY1-expressing L6 myotubes, 2-MeSADP 1 μM for 6 hours, mean of 2 experiments",1.81
same,Fold Change 2 (Basal plus P2RY1 plus 2-MeSADP)/(Basal no P2RY1 no 2-MeSADP),"hP2RY1 [2]; basal glucose transport (no insulin), hP2RY1-expressing L6 myotubes, 2-MeSADP 1 μM for 6 hours, single experiments",1.71 and 1.91
